Key:
[1] = tested on: myotubes differentiated from healthy donors; experiment: Calcium release assay in myotubes (Fluo-4 time-lapse), inducers; type: cell-based, human; conditions: acetylcholine 20 μM, caffeine 10 mM, IGF-1 37 nM, 30 seconds time-lapse
Procedure: (§1) As myotube shortening can also take origin from compound toxicity, physiological cues of myotube contraction need to be validated. Hit validation is performed using a secondary assay estimating the level of calcium release to myotube cytoplasm. Myotubes differentiated from donors are cultured during 5 days and stained with a calcium sensitive florescent probe Fluo-4 (2 μM) in a dedicated buffer (145 mM NaCl, 5 mM KCl, 1 mM CaCl2, 1 mM MgCl2, 5.6 mM glucose, 10 mM Hepes, pH 7.4). A single compound is added to cultured myotubes and a time-lapse acquisition is performed during 30 seconds (Eclipse-Ti, Nikon), by taking a picture each second, to follow the increase in fluorescence intensity of the probe due to calcium entry into the cytoplasm. After fluorescence background removal, a relative fluorescence intensity is calculated in the whole myotubes for each timepoint, normalizing to the first value set up at 100%.

[2] = tested on: myotubes from healthy donor; experiment: Inhibition of calcium release after acetylcholine or 4-chloro-m-cresol induction (Fluo-4); type: cell-based, human; conditions: tubocurarine 100 μM, succinylcholine 25 μM; for effect on 4-chloro-m-cresol induction of calcium release: 4-chloro-m-cresol 400 μM induction; for decrease of relative fluorescence intensity after acetylcholine induction: acetylcholine 20 μM induction, inhibitor added 15 minutes before, verapamil, nifedipine, nicardipine 40 μM
Procedure: as §1
Myoblasts are differentiated during 5 days in culture, then potential inhibitors are added in calcium buffer 15 minutes before an acethycholine treatment. […] Moreover mode of action characterization can be optimized by comparing a compound effect on both acethycholine and 4-chloro-m-cresol inductions. […] Even if a time-lapse method is described here using a classical widefield microscope, this embodiment of the invention is fully compatible with kinetic plate readers systems allowing automated calcium flow measurements, including the Hamamatsu FDSS.

[3] = tested on: myotubes differentiated from healthy donors (human primary myoblasts HSMM, Lonza); experiment: Myotube shortening assay (contraction induction, troponin T immunostaining, image analysis); type: cell-based; conditions: 4-chloro-m-cresol 1.5 mM, 3 minutes
Procedure: Human primary myoblasts (HSMM, Lonza) are cultured on fibronectin coated surfaces within growth medium (Lonza SkGM™-2 cell culture Kit) during 24 hours. Then cells are cultured within differentiation medium (DMEM/F12, 2% Horse Serum, 0.5% P/S) for 5 days. Compounds (4-chloro-m-cresol, 1.5 mM) are added to myotubes during 3 minutes. Cells are fixed and an immunostaining is realized against troponin T and nuclei. Images are acquired using an Operetta high content imaging system (PerkinElmer). Automated image segmentation and analysis methods has been developed by the inventors using the Acapella software library (PerkinElmer). Then, objects are analyzed to extract basic parameters such as myotube count, nuclei count, myotube morphology (including their length, width, area), fusion index (through the percentage nuclei embedded within myotubes). However, the main descriptor of myotube shortening is the quantification of the number of spots, which are objects obtained due to myotube detachment from the culture device and subsequent folding of at least one extremity of the myotube on itself (FIG. 2B, right). Taking said parameters into account, aberrant myotubes are removed. An advanced descriptor is additionally measured, as the number of myotubes encompassing a length lower than 470 μm. […] As myotubes treatment with 4-chloro-m-cresol induces 25% decrease in tube area, and 50% increase in staining intensity readouts, the use of spot number quantification largely increases the assay window (1000%) with a reduced variability, ensuring a full compatibility of the assay with compounds screening (Z′-factors higher than 0.7).

[4] = tested on: myotubes from a healthy donor with chemically induced atrophy; experiment: Atrophy induction and atrophy rescue assay (muscle disuse or wasting model); type: cell-based, human; conditions: for reduction of myotube area (atrophy induction) / rescue of atrophy induced by dexamethasone: dexamethasone 100 μM; for reduction of myotube area (atrophy induction) / rescue of atrophy induced by myostatin: myostatin 4.8 nM; for reduction of myotube area (atrophy induction) / rescue of atrophy induced by IL1-β: IL1-β 1.16 nM; for reduction of myotube area (atrophy induction) / rescue of atrophy induced by TNF-α: TNF-α 115 pM; for reduction of myotube area (atrophy induction): 96 hours; for rescue of atrophy induced by IL1-β / rescue of atrophy induced by TNF-α / rescue of atrophy induced by dexamethasone / rescue of atrophy induced by myostatin: IGF-1 18.75 nM, trichostatin A 300 nM
Excerpt: Another possible application is to mimic muscle wasting disorders (cachexia, sarcopenia) by chemically inducing atrophy on myotubes from healthy donors and then to screen compounds potentially rescuing the atrophic phenotype. As patients suffering from a large decrease in muscle mass, primary myoblast samples or myofibers can't be collected for ethical reasons and artificial in vitro strategies are necessary. Nonetheless, signaling pathways impacted in cachexia and sarcopenia are well described in the literature implicating three major cascades: glucocorticoid, Smad2/3 and the NF-κB pathway. Molecules known to reproduce these molecular mechanisms can therefore be used to simulate pathological myotubes. For example, glucocorticoid pathway can be mimicked by dexamethasone treatment, Smad2/3 pathway by myostatin and TGF-β treatments, and NF-κB pathway by IL1-β and TNF-α treatments.
To do so, human primary myoblasts (HSMM, Lonza), from a healthy donor, are cultured on fibronectin coated surfaces within growth medium (Lonza SkGM™-2 cell culture Kit) during 24 hours. Then cells are cultured within differentiation medium (DMEM/F12, 2% Horse Serum, 0.5% P/S) for 24 hours. Candidates with potential rescue effect are added to the forming myotubes 15 minutes before the atrophic inducer. Then myotubes are cultured during 96 hours. Cells are fixed and an immunostaining is realized against troponin T and nuclei. Images are acquired using an Operetta high content imaging system (PerkinElmer). Automated image processing has been developed by the inventors using the Acapella software library (PerkinElmer).

[5] = tested on: myotubes from DMD donors; experiment: DMD myotube morphology rescue assay; type: cell-based, human; conditions: for increase of fusion index in DMD myotubes / increase of tube number in DMD myotubes: prednisone 500 nM, deflazacort 50 nM
Procedure: Using previously described protocol, human primary myoblasts, are cultured on fibronectin coated surfaces within growth medium during 24 hours. Then cells are cultured within differentiation medium (DMEM/F12, 2% Horse Serum, 0.5% P/S) for 24 hours. Therapeutic drug candidates are added and myotubes are then cultured during 96 hours. Cells are fixed and an immunostaining is realized against troponin T and nuclei. Images are acquired using an Operetta high content imaging system (PerkinElmer). Automated image processing was been developed by the inventors using the Acapella software library (PerkinElmer).

[6] = tested on: myotubes differentiated from myoblasts of healthy donors; experiment: Glucose metabolism assay (Glucose Uptake Colorimetric Assay Kit); type: cell-based, human
Procedure: (§2) Human primary myoblasts from a healthy or a type I diabetic donor, are cultured on fibronectin coated surfaces within growth medium during 24 hours. Then cells are cultured within differentiation medium (DMEM/F12, 2% Horse Serum, 0.5% P/S) for 24 hours. Therapeutic drug candidates are added and myotubes are then cultured during 96 hours. Compound effect on glucose metabolism is performed by using the indications provided by the manufacturer (Glucose Uptake Colorimetric Assay Kit, Sigma).

[7] = tested on: myotubes from healthy and type I diabetes donors; experiment: Morphology of myotubes from healthy and type I diabetes donors; type: cell-based, human; conditions: insulin 10 μM
Procedure: as §2
FIG. 10 is a quantification of some relevant morphological parameters, as tube number, fusion index, tube area tube width, of myotubes from healthy and type I diabetes donors, cultured in control and insulin (10 μM) conditions according to the invention. […] This illustrates the specificity of metabolisms assays on compounds detection and the complementarity of the approaches to detect new drugs rescuing specifically metabolic disorders.

[8] = tested on: myotubes differentiated from healthy donors; experiment: Morphology assay (myotube area and nuclei count, dose response); type: cell-based, human; conditions: 96 hours, compared to untreated control
Procedure: Human primary myoblasts (HSMM, Lonza), from a healthy donor, are cultured on fibronectin coated surfaces within growth medium (Lonza SkGM™-2 cell culture Kit) during 24 hours. Then cells are cultured within differentiation medium (DMEM/F12, 2% Horse Serum, 0.5% P/S) for 24 hours. Compounds are added to the forming myotubes during 96 hours. Cells are fixed and an immunostaining is realized against troponin T and nuclei. Images are acquired using an Operetta high content imaging system (PerkinElmer).
In order to characterize compounds mode of action on the myotube model (including myoblasts differentiation, myotube maturation, myotube hypertrophy, myotube atrophy, or cell viability), automated image segmentation and analysis methods has been developed by the inventors using the Acapella software library (PerkinElmer).
First, customized segmentations of myotubes and nuclei are performed.
Second, objects are analyzed to extract basic parameters such as myotube count, nuclei count, myotube morphology (including their length, width, area, and orientation), fusion index (through the percentage nuclei within myotubes). Taking said parameters into account, aberrant myotubes are removed.

CC(=O)OCC[N+](C)(C)C [acethylcholine, acetylcholine]
increase of relative fluorescence intensity (calcium release) compared to steady state level [1]: 305%

C[N+](C)(C)CCOC(=O)CCC(=O)OCC[N+](C)(C)C [succinylcholine]
effect on 4-chloro-m-cresol induction of calcium release [2]: −30%
decrease of relative fluorescence intensity after acetylcholine induction [2]: 94%

Cc1cc(O)ccc1Cl [4-chloro-m-cresol]
spot number quantification, assay window [3]: 1000%
decrease in tube area ([3]; myotubes cultured 5 days): 25%
increase in staining intensity ([3]; troponin T staining): 50%

Cn1c(=O)c2c(ncn2C)n(C)c1=O [caffeine]
increase of relative fluorescence intensity (calcium release) compared to steady state level [1]: 55%

IL1-β: atrophy inducer, NF-κB pathway
reduction of myotube area (atrophy induction) [4]: 35%

CC(=O)OCC(=O)[C@@]12N=C(C)O[C@@H]1C[C@H]1[C@@H]3CCC4=CC(=O)C=C[C@]4(C)[C@H]3[C@@H](O)C[C@@]12C [deflazacort]
increase of fusion index in DMD myotubes [5]: 59%
increase of tube number in DMD myotubes [5]: 54%

Insulin
increase of glucose metabolism ([6]; insulin 10 μM): 67%
effect on myotube morphology (tube number, fusion index, tube area, tube width) [7]: does not modify myotube morphology

IGF-1: hypertrophic reference compound
effect on myotube area [8]: hypertrophic
effect on nuclei count [8]: without nuclei count alteration
rescue of atrophy induced by IL1-β [4]: 85%
rescue of atrophy induced by TNF-α [4]: 89%
rescue of atrophy induced by dexamethasone [4]: 275%
rescue of atrophy induced by myostatin [4]: 71%
effect on glucose uptake ([6]; IGF-1 37 nM): no effect
rescue of fusion index in DMD myotubes ([5]; IGF-1 37 nM, 96 hours): 204%
rescue of myotube width in DMD myotubes ([5]; IGF-1 37 nM, 96 hours): 15%
rescue of tube number in DMD myotubes ([5]; IGF-1 37 nM, 96 hours): 109%
increase of relative fluorescence intensity (calcium release) compared to steady state level [1]: 20%

TNF-α
reduction of myotube area (atrophy induction) [4]: 55%

CC(/C=C/C(=O)NO)=C\[C@@H](C)C(=O)c1ccc(N(C)C)cc1 [trichostatin A]
effect on myotube area [8]: atrophy/hypertrophy biphasic effects
rescue of atrophy induced by IL1-β [4]: 54%
rescue of atrophy induced by TNF-α [4]: 100%
rescue of atrophy induced by dexamethasone [4]: 175%
rescue of atrophy induced by myostatin [4]: 71%

COC(=O)C1=C(C)NC(C)=C(C(=O)OCCN(C)Cc2ccccc2)C1c1cccc([N+](=O)[O-])c1 (stereo not drawn) [nicardipine]
decrease of relative fluorescence intensity after acetylcholine induction [2]: 91%

TGF-β: atrophic reference compound, Smad2/3 pathway
effect on myotube area [8]: atrophic
effect on nuclei count [8]: without nuclei count alteration

C[C@]12C=CC(=O)C=C1CC[C@@H]1[C@@H]2C(=O)C[C@@]2(C)[C@H]1CC[C@]2(O)C(=O)CO [Prednisone, prednisone]
increase of fusion index in DMD myotubes [5]: 28%
increase of tube number in DMD myotubes [5]: 20%

C[C@@H]1C[C@H]2[C@@H]3CCC4=CC(=O)C=C[C@]4(C)[C@@]3(F)[C@@H](O)C[C@]2(C)[C@@]1(O)C(=O)CO [dexamethasone]
reduction of myotube area (atrophy induction) [4]: 60%

myostatin: atrophic reference compound, Smad2/3 pathway
effect on nuclei count [8]: decrease in nuclei count
reduction of myotube area (atrophy induction) [4]: 30%

COc1cc2c3cc1Oc1cc(ccc1O)C[C@@H]1c4c(cc(OC)c(O)c4Oc4ccc(cc4)C[C@@H]3N(C)CC2)CC[N+]1(C)C [Tubocurarine, tubocurarine]
effect on 4-chloro-m-cresol induction of calcium release [2]: 0%
decrease of relative fluorescence intensity after acetylcholine induction [2]: 96%

Source: patent US11061017B2, “High throughput and functional screening method for muscle related disorders and biological processes” (CYTOO, priority 2015, dated 2021)
